Our source for the melting point values is US6335341B1, “Pyridyl-and pyrimidyl-heterocyclic compounds inhibiting oxido squalene-cyclase” (Zeneca Limited, priority 1997, dated 2002).

Molecules are shown by their SMILES.

As a reminder, the melting point is the temperature, or range, at which the solid turns liquid. For the compound `Cc1nccc(N2CCN(CC3CCN(S(=O)(=O)c4ccc(Cl)cc4)CC3)CC2)n1` [Example 1, 1-(4-chlorophenylsulphonyl)-4-[1-(2-methylpyrimidin-4-yl)piperazin-4ylmethyl]piperidine], the melting point was 191 to 193 °C (dec.). The compound `O=S(=O)(c1ccc(Br)cc1)N1CCC(CN2CCC(c3ccncc3)CC2)CC1` [Example 3, 1-(4-bromophenylsulphonyl)-4-[4-(4-pyridyl)-1-piperidylmethyl]piperidine] showed a melting point of 163 to 164 °C. The same measure for `Cc1nccc(N2CCC(CN3CCN(C(=O)c4ccc(F)cc4)CC3)CC2)n1` [Example 8, 1-(4-fluorobenzoyl)-4-[1-(2-methyl-4-pyrimidinyl)-4-piperidylmethyl]piperazine]: 127 to 128 °C.

As for `Cc1cc(N2CCC(CN3CCN(S(=O)(=O)c4ccc(Cl)cc4)CC3)CC2)nc(C)n1` [Example 11, 1-(4-chlorophenylsulphonyl)-4-[1-(2,6-dimethylpyrimidin-4-yl)-4-piperidylmethyl]piperazine], the melting point lay in the range of 73 to 74 °C. As for `Cc1nccc(N2CCC(O)(CN3CCN(C(=O)c4ccc(F)cc4)CC3)CC2)n1` [Example 15, 1-(4-fluorobenzoyl)-4-[1-(2-methylpyrimidin-4-yl]-4-hydroxy-4-piperidylmethyl]piperazine], the figure is 114 to 117 °C. In turn, `O=S(=O)(c1ccc(Br)cc1)N1CCN(CC2CCN(c3ccncc3)CC2)CC1` [Example 19, 1-(4-bromophenylsulphonyl)-4-[1-(4-pyridyl)piperidin-4-ylmethyl]piperazine] displayed a melting point of 179 to 180 °C.

`O=S(=O)(c1ccc(Br)cc1)N1CCN(CC2CCN(c3ccncc3Cl)CC2)CC1` [Example 20, 1-(4-bromophenylsulphonyl)-4-[1-(3-chloro-4-pyridyl)piperidin-4-ylmethyl]piperazine] returned a melting point of 158 to 159 °C.
